# Measurements published in patent publication US9328138B2 (priority 2011, dated 2016).
# Experiments:
# [1] = biological target: T1, HCV genotype 1b (BK) NS3 modified enzyme with a R155K mutation (Hepatitis C virus genotype 1b, UniProt P26663, R1181K); assay: HCV NS3 protease time-resolved fluorescence (TRF) assay, genotype 1b R155K; assay type: biochemical; conditions: Ki 1b R155K, genotype 1b (BK) NS3 R155K; single value
# T1 construct: HCV genotype 1b (BK) NS3 modified enzyme
# Procedure, shortened: (§1)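 NS3/NS4A protease was pre-incubated 10 min with inhibitor in 50 mM HEPES pH 7.5, 150 mM NaCl, 15% glycerol, 0.15% Triton X-100, 10 mM DTT, 0.1% PEG 8000. TRF peptide substrate (25 nM final) was hydrolysed for 6 h at room temperature. IC50 came from four-parameter fits.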
# [2] = biological target: HCV NS3 protease genotype 3a (3A-1) (Hepatitis C virus genotype 3a, UniProt Q81258); assay: HCV NS3 protease time-resolved fluorescence (TRF) assay, genotype 3a; assay type: biochemical; conditions: Ki 3a
# Procedure, shortened: as §1
Compound,Ki [1] [nM],Ki [2] [nM]
"C=C[C@@H]1C[C@]1(NC(=O)[C@@H]1C[C@@H]2CN1C(=O)[C@H](C(C)(C)C)NC(=O)O[C@@H]1C[C@H]1CCCCCc1c(nc3ccccc3c1OCCCN1CCCCC1)O2)C(=O)NS(=O)(=O)C1(C)CC1 [Example 115, (1aR,5S,8S,10R,22aR)-5-tert-butyl-N-[(1R,2S)-2-ethenyl-1-{[(1-methylcyclopropyl)sulfonyl]carbamoyl}cyclopropyl]-3,6-dioxo-17-[3-(piperidin-1-yl)propoxy]-1,1a,3,4,5,6,9,10,18,19,20,21,22,22a-tetradeca hydro-8H-7,10-methano cyclopropa[18,19][1,10,3,6] dioxadiazacyclononadecino [11,12-b]quinoline-8-carboxamide]",0.057,0.25
"C=C[C@@H]1C[C@]1(NC(=O)[C@@H]1C[C@@H]2CN1C(=O)[C@H](C(C)(C)C)NC(=O)O[C@@H]1C[C@H]1CCCCCc1c(nc3ccccc3c1OCCCN1CCOCC1)O2)C(=O)NS(=O)(=O)C1(C)CC1 [Example 116, (1aR,5S,8S,10R,22aR)-5-tert-butyl-N-[(1R,2S)-2-ethenyl-1-{[(1-methylcyclopropyl)sulfonyl]carbamoyl}cyclopropyl]-17-[3-(morpholin-4-yl)propoxy]-3,6-dioxo-1,1a,3,4,5,6,9,10,18,19,20,21, 22,22a-tetradeca hydro-8H-7,10-methanocyclopropa [18,19][1,10,3,6]dioxadiazacyclo nonadecino[11,12-b]quinoline-8-carboxamide]",0.17,1.6
"C=C[C@@H]1C[C@]1(NC(=O)[C@@H]1C[C@@H]2CN1C(=O)[C@H](C(C)(C)C)NC(=O)O[C@@H]1C[C@H]1CCCCCc1c(nc3ccccc3c1OCCCN1CCCC1)O2)C(=O)NS(=O)(=O)C1(C)CC1 [Example 117, (1aR,5S,8S,10R,22aR)-5-tert-butyl-N-[(1R,2S)-2-ethenyl-1-{[(1-methylcyclopropyl)sulfonyl]carbamoyl}cyclopropyl]-3,6-dioxo-17-[3-(pyrrolidin-1-yl)propoxy]-1,1a,3,4,5,6,9,10,18,19,20,21,22,22a-tetradeca hydro-8H-7,10-methano cyclopropa[18,19][1,10,3,6] dioxadiazacyclononadecino [11,12-b]quinoline-8-carboxamide]",0.08,0.93
"C=C[C@@H]1C[C@]1(NC(=O)[C@@H]1C[C@@H]2CN1C(=O)[C@H](C(C)(C)C)NC(=O)O[C@@H]1C[C@H]1CCCCCc1c(nc3ccccc3c1OCCCN1CCCC1=O)O2)C(=O)NS(=O)(=O)C1(C)CC1 [Example 118, (1aR,5S,8S,10R,22aR)-5-tert-butyl-N-[(1R,2S)-2-ethenyl-1-{[(1-methylcyclopropyl)sulfonyl]carbamoyl}cyclopropyl]-3,6-dioxo-17-[3-(2-oxopyrrolidin-1-yl)propoxy]-1,1a,3,4,5,6,9,10,18,19,20,21,22,22a-tetradeca hydro-8H-7,10-methano cyclopropa[18,19][1,10,3,6] dioxadiazacyclononadecino [11,12-b]quinoline-8-carboxamide]",0.066,0.89
C=C[C@@H]1C[C@]1(NC(=O)[C@@H]1C[C@@H]2CN1C(=O)[C@H](C(C)(C)C)NC(=O)O[C@@H]1C[C@H]1CCCCCc1c(nc3ccccc3c1OC)O2)C(=O)NS(=O)(=O)C1(C)CC1 [Example 119],0.12,3.2
"C=C[C@@H]1C[C@]1(NC(=O)[C@@H]1C[C@@H]2CN1C(=O)[C@H](C(C)(C)C)NC(=O)O[C@@H]1C[C@H]1CCCCCc1c(nc3ccccc3c1O)O2)C(=O)NS(=O)(=O)C1(C)CC1 [Example 120, (1aR,5S,8S,10R,22aR)-5-tert-butyl-N-[(1R,2S)-2-ethenyl-1-{[(1-methylcyclopropyl)sulfonyl]carbamoyl}cyclopropyl]-17-hydroxy-3,6-dioxo-1,1a,3,4,5,6,9,10,18, 19,20,212,22,22a-tetradeca hydro-8H-7,10-methanocyclopropa [18,19][1,10,3,6]dioxadiazacyclo-nonadecino [11,12-b]quinoline-8-carboxamide]",0.062,1.1
"C=C[C@@H]1C[C@]1(NC(=O)[C@@H]1C[C@@H]2CN1C(=O)[C@H](C1CCCC1)NC(=O)O[C@@H]1C[C@H]1CCCCCc1c(nc3ccccc3c1OCCN1CCOCC1)O2)C(=O)NS(=O)(=O)C1(C)CC1 [Example 121, (1aR,5S,8S,10R,22aR)-5-cyclopentyl-N-[(1R,2S)-2-ethenyl-1-{[(1-methylcyclopropyl)sulfonyl]carbamoyl}cyclopropyl]-17-[2-(morpholin-4-yl)ethoxy]-3,6-dioxo-1,1a,3,4,5,6,9,10,18,19,20,21,22, 22a-tetradeca hydro-8H-7,10-methanocyclopropa[18,19][1,10,3,6] dioxadiazacyclononadecino [11,12-b]quinoline-8-carboxamide]",0.38,12
"C=C[C@@H]1C[C@]1(NC(=O)[C@@H]1C[C@@H]2CN1C(=O)[C@H](C1CCCCC1)NC(=O)O[C@@H]1C[C@H]1CCCCCc1c(nc3ccccc3c1OCCN1CCOCC1)O2)C(=O)NS(=O)(=O)C1(C)CC1 [Example 122, (1aR,5S,8S,10R,22aR)-5-cyclohexyl-N-[(1R,2S)-2-ethenyl-1-{[(1-methylcyclopropyl)sulfonyl]carbamoyl}cyclopropyl]-17-[2-(morpholin-4-yl)ethoxy]-3,6-dioxo-1,1,a,3,4,5,6,9,10,18,19,20,21, 22,22a-tetradecahydro-8H-7,10-methanocyclopropa[18,19][1,10,3,6] dioxadiazacyclononadecino [11,12-b]quinoline-8-carboxamide]",0.33,8.8
"C=C[C@@H]1C[C@]1(NC(=O)[C@@H]1C[C@@H]2CN1C(=O)[C@H](C1(C)CCCCC1)NC(=O)O[C@@H]1C[C@H]1CCCCCc1c(nc3ccccc3c1OCCN1CCOCC1)O2)C(=O)NS(=O)(=O)C1(C)CC1 [Example 123, (1aR,5S,8S,10R,22aR)-N-[(1R,2S)-2-ethenyl-1-{[(1-methylcyclopropyl)sulfonyl]carbamoyl}cyclopropyl]-5-(1-methylcyclohexyl)-17-[2-(morpholin-4-yl)ethoxy]-3,6-dioxo-1,1a,3,4,5,6,9,10,18,19,20,21,22,22a-tetradecahydro-8H-7,10-methanocyclopropa[18,19] [1,10,3,6]dioxadiazacyclononadecino [11,12-b]quinoline-8-carboxamide]",0.49,6.1
"C=C[C@@H]1C[C@]1(NC(=O)[C@@H]1C[C@@H]2CN1C(=O)[C@H](C(C)C)NC(=O)O[C@@H]1C[C@H]1CCCCCc1c(nc3ccccc3c1OCCN1CCOCC1)O2)C(=O)NS(=O)(=O)C1(C)CC1 [Example 124, (1aR,5S,8S,10R,22aR)-N-[(1R,2S)-2-ethenyl-1-{[(1-methylcyclopropyl)sulfonyl]carbamoyl}cyclopropyl]-17-[2-(morpholin-4-yl)ethoxy]-3,6-dioxo-5-(propan-2-yl)-1,1a,3,4,5,6,9,10,18,19,20,21,22,22a-tetradeca hydro-8H-7,10-methano cyclopropa[18,19][1,10,3,6] dioxadiazacyclonona decino[11,12-b]quinoline-8-carboxamide]",0.79,10
"C=C[C@@H]1C[C@]1(NC(=O)[C@@H]1C[C@@H]2CN1C(=O)[C@H](CC1CCCCC1)NC(=O)O[C@@H]1C[C@H]1CCCCCc1c(nc3ccccc3c1OCCN1CCOCC1)O2)C(=O)NS(=O)(=O)C1(C)CC1 [Example 125, (1aR,5S,8S,10R,22aR)-5-(cyclohexylmethyl)-N-[(1R,2S)-2-ethenyl-1-{[(1-methylcyclopropyl)sulfonyl]carbamoyl}cyclopropyl]-17-[2-(morpholin-4-yl)ethoxy]-3,6-dioxo-1,1a,3,4,5,6,9,10,18,19,20, 21,22,22a-tetradecahydro-8H-7,10-methanocyclopropa [18,19][1,10,3,6]dioxadiazacyclo nonadecino[11,12-b]quinoline-8-carboxamide]",4.1,114
"C=C[C@@H]1C[C@]1(NC(=O)[C@@H]1C[C@@H]2CN1C(=O)[C@H](C(C)(C)C)NC(=O)O[C@@H]1C[C@H]1CCCCCc1c(nc3c(F)cccc3c1OCCN1CCOCC1)O2)C(=O)NS(=O)(=O)C1(C)CC1 [Example 126, (1aR,5S,8S,10R,22aR)-5-tert-butyl-N-[(1R,2S)-2-ethenyl-1-{[(1-methylcyclopropyl)sulfonyl]carbamoyl}cyclopropyl]-13-fluoro-17-[2-(morpholin-4-yl)ethoxy]-3,6-dioxo-1,1a,3,4,5,6,9,10,18,19, 20,21,22,22a-tetradecahydro-8H-7,10-methanocyclopropa[18,19][1,10,3,6] dioxadiazacyclononadecino[11,12-b] quinoline-8-carboxamide]",0.4,7.7
"C=C[C@@H]1C[C@]1(NC(=O)[C@@H]1C[C@@H]2CN1C(=O)[C@H](C(C)(C)C)NC(=O)O[C@@H]1C[C@H]1CCCCCc1c(nc3c(OC)cccc3c1OCCN1CCOCC1)O2)C(=O)NS(=O)(=O)C1(C)CC1 [Example 127, (1aR,5S,8S,10R,22aR)-5-tert-butyl-N-[(1R,2S)-2-ethenyl-1-{[(1-methylcyclopropyl)sulfonyl]carbamoyl}cyclopropyl]-13-methoxy-17-[2-(morpholin-4-yl)ethoxy]-3,6-dioxo-1,1a,3,4,5,6.9, 10,18,19,20,21,22,22a-tetradecahydro-8H-7,10-methanocyclopropa [18,19][1,10,3,6]dioxadiaza cyclononadecino[11,12-b]quinoline-8-carboxamide]",0.11,2.1
